Measured values from the supplement of paper PMC11208160.

Assay: recombinant UMI read abundance after kanamycin selection (control-corrected) (log10(CPM+1)); higher = more efficient recombination; extreme values may be limits of the assay; sequences stand for … in AGTGCAGAGAAAATCGGCCAGTTTTCTCTGCCTGCAGTCCGCATGCCGTGGGACCCCTTGGGTTCTAACCTGTTGCCTAGATTTATGCAGCGGACTGCCTTTCTCCCAAAGTGATAAACCGG…AGGTTGGTTTCACT; site = the 11-nt donor
In short: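 Each donor and donor-binding-loop pair was tracked by a 12-nt UMI on a plasmid carrying a promoterless kanamycin gene. With a second plasmid supplying a fixed target and T7-inducible IS621 bridge recombinase, the pool was plated in Escherichia coli on IPTG (0.07 mM) plus kanamycin or unselected. Sequencing of recombinant UMIs across the donor–target junction gave counts expressed as log10(CPM+1) after replicate averaging and control-derived scaling.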
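Also: IS621 bridge recombinase in Escherichia coli cells against a fixed T5 target plasmid.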

Sequence | recombinant UMI read abundance (log10)
CGTTAGACATGGACCGGTTTTCCCGGTAATCCGTATTTGAC (site CGTTAGACTCT) | 0.0193
CGTTAGACATGGACCGGTTTTCCCGGTAATCCGTATTTGAC (site CGTTAGACTGT) | 1.58
CGTTAGACATGGACCGGTTTTCCCGGTAATCCGTATTTGAC (site CGTTAGACTTT) | 0.0068
CGTTAGACATGGACCGGTTTTCCCGGTAATCCGTATTTGAG (site AGTTAGACTCT) | 0.0858
CGTTAGACATGGACCGGTTTTCCCGGTAATCCGTATTTGAG (site CATTAGACTCT) | 0.498
CGTTAGACATGGACCGGTTTTCCCGGTAATCCGTATTTGAG (site CCTTAGACTCT) | 0.0362
CGTTAGACATGGACCGGTTTTCCCGGTAATCCGTATTTGAG (site CGATAGACTCT) | 0.838
CGTTAGACATGGACCGGTTTTCCCGGTAATCCGTATTTGAG (site CGCTAGACTCT) | 0.501
CGTTAGACATGGACCGGTTTTCCCGGTAATCCGTATTTGAG (site CGGTAGACTCT) | 0.157
CGTTAGACATGGACCGGTTTTCCCGGTAATCCGTATTTGAG (site CGTAAGACTCT) | 0
CGTTAGACATGGACCGGTTTTCCCGGTAATCCGTATTTGAG (site CGTCAGACTCT) | 0.944
CGTTAGACATGGACCGGTTTTCCCGGTAATCCGTATTTGAG (site CGTGAGACTCT) | 0.0124
CGTTAGACATGGACCGGTTTTCCCGGTAATCCGTATTTGAG (site CGTTAAACTCT) | 0.893
CGTTAGACATGGACCGGTTTTCCCGGTAATCCGTATTTGAG (site CGTTACACTCT) | 0.00825
CGTTAGACATGGACCGGTTTTCCCGGTAATCCGTATTTGAG (site CGTTAGACTAT) | 1.08
CGTTAGACATGGACCGGTTTTCCCGGTAATCCGTATTTGAG (site CGTTAGACTCA) | 0.0196
CGTTAGACATGGACCGGTTTTCCCGGTAATCCGTATTTGAG (site CGTTAGACTCC) | 0.374
CGTTAGACATGGACCGGTTTTCCCGGTAATCCGTATTTGAG (site CGTTAGACTCG) | 0
CGTTAGACATGGACCGGTTTTCCCGGTAATCCGTATTTGAG (site CGTTAGACTCT) | 1.55

Sequence | recombinant UMI read abundance (log10)
CGTTAGACATGGACCGGTTTTCCCGGTAATCCGTATTTGAG (site CGTTAGACTGT) | 0.00425
CGTTAGACATGGACCGGTTTTCCCGGTAATCCGTATTTGAG (site CGTTAGACTTT) | 0.315
CGTTAGACATGGACCGGTTTTCCCGGTAATCCGTATTTGAG (site CGTTAGCCTCT) | 0.021
CGTTAGACATGGACCGGTTTTCCCGGTAATCCGTATTTGAG (site CGTTAGGCTCT) | 0.214
CGTTAGACATGGACCGGTTTTCCCGGTAATCCGTATTTGAG (site CGTTAGTCTCT) | 0.506
CGTTAGACATGGACCGGTTTTCCCGGTAATCCGTATTTGAG (site CGTTATACTCT) | 0.0136
CGTTAGACATGGACCGGTTTTCCCGGTAATCCGTATTTGAG (site CGTTCGACTCT) | 0.00605
CGTTAGACATGGACCGGTTTTCCCGGTAATCCGTATTTGAG (site CGTTGGACTCT) | 0.013
CGTTAGACATGGACCGGTTTTCCCGGTAATCCGTATTTGAG (site CGTTTGACTCT) | 0.0164
CGTTAGACATGGACCGGTTTTCCCGGTAATCCGTATTTGAG (site CTTTAGACTCT) | 0.00778
CGTTAGACATGGACCGGTTTTCCCGGTAATCCGTATTTGAG (site GGTTAGACTCT) | 0.0132
CGTTAGACATGGACCGGTTTTCCCGGTAATCCGTATTTGAG (site TGTTAGACTCT) | 0.0126
CGTTAGACATGGACCGGTTTTCCCGGTAATCCGTATTTGGG (site CGTTAGACTCA) | 0
CGTTAGACATGGACCGGTTTTCCCGGTAATCCGTATTTGGG (site CGTTAGACTCC) | 0.0132
CGTTAGACATGGACCGGTTTTCCCGGTAATCCGTATTTGGG (site CGTTAGACTCG) | 0.0116
CGTTAGACATGGACCGGTTTTCCCGGTAATCCGTATTTGGG (site CGTTAGACTCT) | 0.512
CGTTAGACATGGACCGGTTTTCCCGGTAATCCGTATTTGTG (site CGTTAGACTCA) | 1.14
CGTTAGACATGGACCGGTTTTCCCGGTAATCCGTATTTGTG (site CGTTAGACTCC) | 0.0241
CGTTAGACATGGACCGGTTTTCCCGGTAATCCGTATTTGTG (site CGTTAGACTCG) | 0.198

Sequence | recombinant UMI read abundance (log10)
CGTTAGACATGGACCGGTTTTCCCGGTAATCCGTATTTGTG (site CGTTAGACTCT) | 0.0332
CGTTAGTCATGGACCGGTTTTCCCGGTAATCCGTATTTGAG (site CGTTAGACTCT) | 0.0321
CGTTAGTCATGGACCGGTTTTCCCGGTAATCCGTATTTGAG (site CGTTAGCCTCT) | 0.0076
CGTTAGTCATGGACCGGTTTTCCCGGTAATCCGTATTTGAG (site CGTTAGGCTCT) | 0.0227
CGTTAGTCATGGACCGGTTTTCCCGGTAATCCGTATTTGAG (site CGTTAGTCTCT) | 2.05
CGTTCACCATGGACCGGTTTTCCCGGTAATCCGTATTTGCT (site CGATCATCTAG) | 0
CGTTCACCATGGACCGGTTTTCCCGGTAATCCGTATTTGCT (site CGTTCACCTAG) | 0.00366
CGTTCATCATGGACCGGTTTTCCCGGTAATCCGTATTTGAT (site CGATCATCTAG) | 0
CGTTCATCATGGACCGGTTTTCCCGGTAATCCGTATTTGAT (site CGTTCATCTAT) | 0
CGTTCGACATGGACCGGTTTTCCCGGTAATCCGTATTTGAG (site CGTTAGACTCT) | 0.0143
CGTTCGACATGGACCGGTTTTCCCGGTAATCCGTATTTGAG (site CGTTCGACTCT) | 0.635
CGTTCGACATGGACCGGTTTTCCCGGTAATCCGTATTTGAG (site CGTTGGACTCT) | 0.0108
CGTTCGACATGGACCGGTTTTCCCGGTAATCCGTATTTGAG (site CGTTTGACTCT) | 0.0134
CGTTGAACATGGACCGGTTTTCCCGGTAATCCGTATTTGGA (site CGTTGAACTTC) | 0.945
CGTTGAGCATGGACCGGTTTTCCCGGTAATCCGTATTTGCG (site CGTTGAGCTCG) | 1.2
CGTTGGGCATGGACCGGTTTTCCCGGTAATCCGTATTTGCT (site CGTTAGGCTAG) | 0.41
CGTTGGGCATGGACCGGTTTTCCCGGTAATCCGTATTTGCT (site CGTTCGGCTAG) | 0
CGTTGGGCATGGACCGGTTTTCCCGGTAATCCGTATTTGCT (site CGTTGGGCTAG) | 1.65
CGTTGGGCATGGACCGGTTTTCCCGGTAATCCGTATTTGCT (site CGTTTGGCTAG) | 0
